How the values were obtained:
Assay in all cases: relative viability (nuclei count vs DMSO), 5 days (fraction); higher = more cells survive
NCI-H1355 = system: NCI-H1355
Summary of the method: (§1)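 Lung cancer cell lines were pin-tool dosed in 1536-well plates on the day after seeding, with either a lone drug or a fixed anchor-drug dose plus five library-drug doses (not always all listed) in √10 steps. Nuclei were counted on 4× images after 5 days. Relative viability is the ratio of treated-well to vehicle-well nuclei counts, with each value a median of duplicate plates.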

NCI-H1437 = system: NCI-H1437
Summary of the method: as §1

HARA = system: HARA
Summary of the method: as §1

HCC-44 = system: HCC-44
Summary of the method: as §1

NCI-H2342 = system: NCI-H2342
Summary of the method: as §1

NCI-H2228 = system: NCI-H2228
Summary of the method: as §1

NCI-H1734 = system: NCI-H1734
Summary of the method: as §1

NCI-H2170 = system: NCI-H2170
Summary of the method: as §1

NCI-H1792 = system: NCI-H1792
Summary of the method: as §1

HCC-827 = system: HCC-827
Summary of the method: as §1

EKVX = system: EKVX
Summary of the method: as §1

NCI-H2009 = system: NCI-H2009
Summary of the method: as §1

NCI-H647 = system: NCI-H647
Summary of the method: as §1

NCI-H2405 = system: NCI-H2405
Summary of the method: as §1

NCI-H661 = system: NCI-H661
Summary of the method: as §1

NCI-H2087 = system: NCI-H2087
Summary of the method: as §1

NCI-H1395 = system: NCI-H1395
Summary of the method: as §1

NCI-H596 = system: NCI-H596
Summary of the method: as §1

SK-MES-1 = system: SK-MES-1
Summary of the method: as §1

LOU-NH91 = system: LOU-NH91
Summary of the method: as §1

LC-2-ad = system: LC-2-ad
Summary of the method: as §1

SK-LU-1 = system: SK-LU-1
Summary of the method: as §1

BEN = system: BEN
Summary of the method: as §1

Structure (SMILES): C[C@@H]1CN(CC(=O)Nc2ccc3c(c2)Cc2cccc(-c4cc(=O)cc(N5CCOCC5)o4)c2S3)C[C@H](C)O1 + CCNC(=O)c1noc(-c2cc(C(C)C)c(O)cc2O)c1-c1ccc(CN2CCOCC2)cc1 [Luminespib] (partner 0.01 µM)
- relative viability (NCI-H1355; first compound 0.04 µM): 0.678
- relative viability (NCI-H1355; first compound 0.1265 µM): 0.693
- relative viability (NCI-H1355; first compound 0.4 µM): 0.704
- relative viability (NCI-H1355; first compound 4 µM): 0.805
- relative viability (NCI-H1437; first compound 0.04 µM): 1.2
- relative viability (NCI-H1437; first compound 0.1265 µM): 1.16
- relative viability (NCI-H1437; first compound 0.4 µM): 1.22
- relative viability (NCI-H1437; first compound 4 µM): 0.891
- relative viability (HARA; first compound 0.1265 µM): 0.675
- relative viability (HARA; first compound 0.4 µM): 0.471
- relative viability (HARA; first compound 4 µM): 0.89
- relative viability (HCC-44; first compound 0.04 µM): 0.9
- relative viability (HCC-44; first compound 0.1265 µM): 1.04
- relative viability (HCC-44; first compound 0.4 µM): 1.19
- relative viability (HCC-44; first compound 4 µM): 0.949
- relative viability (NCI-H2342; first compound 0.04 µM): 0.706
- relative viability (NCI-H2342; first compound 0.1265 µM): 0.641
- relative viability (NCI-H2342; first compound 0.4 µM): 0.722
- relative viability (NCI-H2342; first compound 4 µM): 0.662
- relative viability (NCI-H2228; first compound 0.04 µM): 0.15
- relative viability (NCI-H2228; first compound 0.1265 µM): 0.128
- relative viability (NCI-H2228; first compound 0.4 µM): 0.171
- relative viability (NCI-H2228; first compound 4 µM): 0.133
- relative viability (NCI-H1734; first compound 0.04 µM): 0.264
- relative viability (NCI-H1734; first compound 0.1265 µM): 0.212
- relative viability (NCI-H1734; first compound 0.4 µM): 0.195
- relative viability (NCI-H1734; first compound 4 µM): 0.291
- relative viability (NCI-H2170; first compound 0.04 µM): 0.661
- relative viability (NCI-H2170; first compound 0.1265 µM): 0.67
- relative viability (NCI-H2170; first compound 0.4 µM): 0.677
- relative viability (NCI-H2170; first compound 4 µM): 0.86
- relative viability (NCI-H1792; first compound 0.04 µM): 0.385
- relative viability (NCI-H1792; first compound 0.1265 µM): 0.493
- relative viability (NCI-H1792; first compound 0.4 µM): 0.399
- relative viability (NCI-H1792; first compound 4 µM): 0.333
- relative viability (HCC-827; first compound 0.04 µM): 0.547
- relative viability (HCC-827; first compound 0.1265 µM): 0.469
- relative viability (HCC-827; first compound 0.4 µM): 0.915
- relative viability (HCC-827; first compound 4 µM): 0.681
- relative viability (EKVX; first compound 0.04 µM): 0.802
- relative viability (EKVX; first compound 0.1265 µM): 0.874
- relative viability (EKVX; first compound 0.4 µM): 0.955
- relative viability (EKVX; first compound 4 µM): 0.814
- relative viability (NCI-H2009; first compound 0.04 µM): 1.01
- relative viability (NCI-H2009; first compound 0.1265 µM): 0.995
- relative viability (NCI-H2009; first compound 0.4 µM): 0.983
- relative viability (NCI-H2009; first compound 4 µM): 0.804
- relative viability (NCI-H647; first compound 0.04 µM): 0.121
- relative viability (NCI-H647; first compound 0.1265 µM): 0.153
- relative viability (NCI-H647; first compound 0.4 µM): 0.152
- relative viability (NCI-H647; first compound 4 µM): 0.163
- relative viability (NCI-H2405; first compound 0.04 µM): 0.648
- relative viability (NCI-H2405; first compound 0.1265 µM): 0.744
- relative viability (NCI-H2405; first compound 0.4 µM): 0.726
- relative viability (NCI-H2405; first compound 4 µM): 0.612
- relative viability (NCI-H661; first compound 0.04 µM): 0.964
- relative viability (NCI-H661; first compound 0.1265 µM): 0.938
- relative viability (NCI-H661; first compound 0.4 µM): 0.97
- relative viability (NCI-H661; first compound 4 µM): 0.813
- relative viability (NCI-H2087; first compound 0.04 µM): 0.217
- relative viability (NCI-H2087; first compound 0.1265 µM): 0.188
- relative viability (NCI-H2087; first compound 0.4 µM): 0.207
- relative viability (NCI-H2087; first compound 4 µM): 0.168
- relative viability (NCI-H1395; first compound 0.04 µM): 0.695
- relative viability (NCI-H1395; first compound 0.1265 µM): 0.627
- relative viability (NCI-H1395; first compound 0.4 µM): 0.69
- relative viability (NCI-H1395; first compound 4 µM): 0.741
- relative viability (NCI-H596; first compound 0.04 µM): 1.16
- relative viability (NCI-H596; first compound 0.1265 µM): 1.18
- relative viability (NCI-H596; first compound 0.4 µM): 0.921
- relative viability (NCI-H596; first compound 4 µM): 0.964
- relative viability (SK-MES-1; first compound 0.04 µM): 0.659
- relative viability (SK-MES-1; first compound 0.1265 µM): 0.764
- relative viability (SK-MES-1; first compound 0.4 µM): 0.664
- relative viability (SK-MES-1; first compound 4 µM): 0.475
- relative viability (LOU-NH91; first compound 0.04 µM): 0.39
- relative viability (LOU-NH91; first compound 0.1265 µM): 0.358
- relative viability (LOU-NH91; first compound 0.4 µM): 0.3
- relative viability (LOU-NH91; first compound 4 µM): 0.371
- relative viability (LC-2-ad; first compound 0.04 µM): 0.986
- relative viability (LC-2-ad; first compound 0.1265 µM): 0.912
- relative viability (LC-2-ad; first compound 0.4 µM): 0.979
- relative viability (LC-2-ad; first compound 4 µM): 0.953
- relative viability (SK-LU-1; first compound 0.04 µM): 0.222
- relative viability (SK-LU-1; first compound 0.1265 µM): 0.203
- relative viability (SK-LU-1; first compound 0.4 µM): 0.23
- relative viability (SK-LU-1; first compound 4 µM): 0.167
- relative viability (BEN; first compound 0.04 µM): 0.264
- relative viability (BEN; first compound 0.1265 µM): 0.252
- relative viability (BEN; first compound 0.4 µM): 0.463
- relative viability (BEN; first compound 4 µM): 0.322

— the supplement of paper PMC10307832
